Assay results: ChEMBL document CHEMBL1151357, “Inhibition of Plant Growth by Phenethylamines and Tetrahydroisoquinolines” (1981)
Activity calls are given as the source filed them. The rule behind the calls is not given here.

How the values were obtained:
Phaseolus vulgaris [1] = test: Growth inhibition of pinto bean plants assessed as inhibition of second inter node elongation at 50 ug after 4 days relative to control; format: functional
Phaseolus vulgaris [2] = test: Growth inhibition of pinto bean plants assessed as inhibition of second inter node elongation at 150 ug after 4 days relative to control; format: functional
Sorghum bicolor = test: Growth inhibition of Rio sorghum seedlings assessed as shoot growth from seed coat to tip of second leaf at 1 mg/ml after 4 days; format: functional
Phaseolus vulgaris [3] = test: Phytotoxicity against pinto bean plants assessed as induction of necrosis at 50 ug after 4 days; format: functional, organism-based
Phaseolus vulgaris [4] = test: Phytotoxicity against pinto bean plants assessed as induction of necrosis at 150 ug after 4 days; format: functional, organism-based
Phaseolus vulgaris [5] = test: Growth promoting activity in pinto bean plants at =>150 ug after 4 days; format: functional, organism-based

Structure (SMILES)	inhibition (INH) (Phaseolus vulgaris [1])	inhibition (INH) (Phaseolus vulgaris [2])	Activity (Sorghum bicolor)	Activity (Phaseolus vulgaris [3])	Activity (Phaseolus vulgaris [4])	Activity (Phaseolus vulgaris [5])
COc1cc2c(cc1O)CCN[C@H]2C.Cl [SALSOLINE HYDROCHLORIDE]	26%	51%				
COc1cc(CCN)cc(OC(=O)c2ccccc2)c1OC.Cl	51%	0%				
COc1c(OC(=O)c2ccccc2)c(OC(=O)c2ccccc2)cc2c1C(C)NCC2.Cl (stereo unspecified)	26%	26%				
COc1cc([C@@H](O)[C@H](C)N)cc(OC)c1OC.O=C(O)C(O)C(O)C(=O)O	26%	0%				
COc1cc([C@@H](O)[C@H](C)N)cc(OC)c1OC.O=C(O)C(=O)O	26%	0%				
C[N+](C)(C)CCc1ccc(O)cc1.[I-] [CANDICINE IODIDE]	76%	76%	33.22 mm	Active	Active	
COc1cc([C@@H](O)[C@H](C)N)cc(O)c1OC.O=C(O)C(=O)O	0%	26%			Active	
O=C(O)C1NCCc2cc(O)c(O)cc21 (stereo unspecified)	26%	26%				Active
COc1cc(CCn2cccc2C(=O)O)cc(OC)c1OC [PEYONINE]	0%					
COc1cc2c(cc1OC)[C@H](C)N(C)CC2.Cl [CARNEGINE HYDROCHLORIDE]	100%	100%		Active		
COc1cc2c(c(OC)c1OC)CNCC2				Active	Active	
Cl.NCC(O)c1cccc(O)c1 (stereo unspecified) [NORPHENYLEPHRINE HYDROCHLORIDE]	26%					
COc1cc2c(c(OC)c1OC)C(C)NCC2.Cl (racemic)	26%	51%				
COC(=O)c1cccn1CCc1cc(OC)c(OC)c(OC)c1 [PEYONINE METHYL ESTER]	0%					
CN1CCc2cc3c(c(O)c2C1)OCO3.Cl	0%	0%				Active
COc1cc([C@@H](O)[C@H](C)N)cc(OC)c1OC					Active	

Structure (SMILES)	inhibition (INH) (Phaseolus vulgaris [1])	inhibition (INH) (Phaseolus vulgaris [2])	Activity (Sorghum bicolor)	Activity (Phaseolus vulgaris [3])	Activity (Phaseolus vulgaris [4])	Activity (Phaseolus vulgaris [5])
COc1cc2c(c(O)c1OC)[C@H](C)N(C)CC2.Cl [PELLOTINE HYDROCHLORIDE]	26%	0%				
COc1cc2c(c(O)c1OC)[C@H](C)[N+](C)(C)CC2.[I-]	0%	51%		Active		
CC1(C(=O)O)NCCc2cc(O)c(O)cc21 (stereo unspecified)	51%	0%				Active
COc1cc2c(c(OC)c1OC)CNCC2.Cl [ANHALININE HYDROCHLORIDE]	0%	100%				
COc1cc2c(c(OC)c1OC)C(O)CNC2 (stereo unspecified)	0%	0%				
O=C1CCC2(C(=O)O)c3cc(O)c(O)cc3CCN12 (stereo unspecified)	26%	26%				Active
COc1cc([C@@H](O)[C@H](C)N)cc(OC)c1OC.Cl	26%	26%				
COc1cc(CCN)cc(O)c1OC.Cl	76%	76%		Active	Active	
Cl.NCCc1cc(O)c(O)cc1O [OXIDOPAMINE HYDROCHLORIDE]	26%	26%				
COc1cc2c(c(OC)c1OC)[C@H](C)[N+](C)(C)CC2.[I-]	26%	51%		Active		
Cl.NCCc1ccc(O)c(O)c1 [DOPAMINE HYDROCHLORIDE]	26%	0%	40.44 mm			
COc1cc(CCn2cccc2)cc(OC)c1OC [DECARBOXYPEYONINE]	51%	26%				
COc1cc(CC[N+](C)(C)C)cc(OC)c1OC.[I-] [TRICHOCERINE METHYL IODIDE]	76%	76%	36.22 mm	Active	Active	
COc1ccc2c(c1OC)C(C)N(C)CC2.Cl (racemic)	26%	100%			Active	
CI.COc1cc2c(c(OC)c1OC)CNCC2 [ANHALININE METHYLIODIDE]	100%	100%				
